Measurements: the supplement of paper PMC10307832

Experiments:
Assay in all cases: relative viability (nuclei count vs DMSO), 5 days (fraction); higher = more cells survive
IA-LM = system: IA-LM
Procedure, shortened: (§1)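 Dosing by pin tool came one day after lung cancer cell lines were seeded in 1536-well plates, using either one drug or a fixed anchor-drug dose plus five library-drug doses (not always all listed) in √10 steps. After 5 days, nuclei were counted on 4× images. Relative viability is treated-well nuclei count divided by vehicle-well nuclei count, and values are medians of duplicate plates.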

NCI-H1299 = system: NCI-H1299
Procedure, shortened: as §1

Calu-6 = system: Calu-6
Procedure, shortened: as §1

HCC-15 = system: HCC-15
Procedure, shortened: as §1

EBC-1 = system: EBC-1
Procedure, shortened: as §1

NCI-H1703 = system: NCI-H1703
Procedure, shortened: as §1

HCC-44 = system: HCC-44
Procedure, shortened: as §1

EKVX = system: EKVX
Procedure, shortened: as §1

NCI-H1755 = system: NCI-H1755
Procedure, shortened: as §1

UMC-11 = system: UMC-11
Procedure, shortened: as §1

LCLC-103H = system: LCLC-103H
Procedure, shortened: as §1

What does the source list for Cc1sc2c(c1C)C(c1ccc(Cl)cc1)=N[C@@H](CC(=O)OC(C)(C)C)c1nnc(C)n1-2 [JQ1] + CC(C)C[C@H](NC(=O)[C@H](Cc1ccccc1)NC(=O)c1cnccn1)B(O)O [Bortezomib] (partner 0.002 µM)?
relative viability (IA-LM; first compound 0.04 µM): 0.643; relative viability (IA-LM; first compound 0.1265 µM): 0.428; relative viability (IA-LM; first compound 0.4 µM): 0.0917; relative viability (IA-LM; first compound 1.265 µM): 0.0837; relative viability (IA-LM; first compound 4 µM): 0.0676; relative viability (NCI-H1299; first compound 0.04 µM): 1.03; relative viability (NCI-H1299; first compound 0.1265 µM): 0.924; relative viability (NCI-H1299; first compound 0.4 µM): 0.963; relative viability (NCI-H1299; first compound 1.265 µM): 0.499; relative viability (NCI-H1299; first compound 4 µM): 0.363; relative viability (Calu-6; first compound 0.04 µM): 1.04; relative viability (Calu-6; first compound 0.1265 µM): 0.931; relative viability (Calu-6; first compound 0.4 µM): 0.815; relative viability (Calu-6; first compound 1.265 µM): 0.663; relative viability (Calu-6; first compound 4 µM): 0.391; relative viability (HCC-15; first compound 0.04 µM): 0.958; relative viability (HCC-15; first compound 0.4 µM): 0.98; relative viability (HCC-15; first compound 1.265 µM): 0.705; relative viability (HCC-15; first compound 4 µM): 0.628; relative viability (EBC-1; first compound 0.04 µM): 0.451; relative viability (EBC-1; first compound 0.1265 µM): 0.245; relative viability (EBC-1; first compound 0.4 µM): 0.219; relative viability (EBC-1; first compound 1.265 µM): 0.168; relative viability (EBC-1; first compound 4 µM): 0.19; relative viability (NCI-H1703; first compound 0.04 µM): 0.248; relative viability (NCI-H1703; first compound 0.1265 µM): 0.206; relative viability (NCI-H1703; first compound 0.4 µM): 0.19; relative viability (NCI-H1703; first compound 1.265 µM): 0.122; relative viability (NCI-H1703; first compound 4 µM): 0.102; relative viability (HCC-44; first compound 0.04 µM): 0.941; relative viability (HCC-44; first compound 0.1265 µM): 0.702; relative viability (HCC-44; first compound 0.4 µM): 0.744; relative viability (HCC-44; first compound 1.265 µM): 0.461; relative viability (HCC-44; first compound 4 µM): 0.224; relative viability (EKVX; first compound 0.04 µM): 0.981; relative viability (EKVX; first compound 0.1265 µM): 0.842; relative viability (EKVX; first compound 0.4 µM): 1.16; relative viability (EKVX; first compound 1.265 µM): 0.749; relative viability (EKVX; first compound 4 µM): 0.704; relative viability (NCI-H1755; first compound 0.04 µM): 0.923; relative viability (NCI-H1755; first compound 0.1265 µM): 0.807; relative viability (NCI-H1755; first compound 0.4 µM): 0.995; relative viability (NCI-H1755; first compound 1.265 µM): 0.618; relative viability (NCI-H1755; first compound 4 µM): 0.44; relative viability (UMC-11; first compound 0.04 µM): 0.708; relative viability (UMC-11; first compound 0.1265 µM): 0.522; relative viability (UMC-11; first compound 0.4 µM): 0.367; relative viability (UMC-11; first compound 1.265 µM): 0.216; relative viability (UMC-11; first compound 4 µM): 0.136; relative viability (LCLC-103H; first compound 0.04 µM): 1.04; relative viability (LCLC-103H; first compound 0.1265 µM): 1.01; relative viability (LCLC-103H; first compound 0.4 µM): 1.06; relative viability (LCLC-103H; first compound 1.265 µM): 0.557; relative viability (LCLC-103H; first compound 4 µM): 0.439

Which results are given for COc1cc2nccc(Oc3ccc(NC(=O)Nc4cc(C)on4)c(Cl)c3)c2cc1OC [Tivozanib] + CC(C)C[C@H](NC(=O)[C@H](Cc1ccccc1)NC(=O)c1cnccn1)B(O)O [Bortezomib] (partner 0.002 µM)?
relative viability (IA-LM; first compound 0.005 µM): 0.716; relative viability (IA-LM; first compound 0.01581 µM): 0.812; relative viability (IA-LM; first compound 0.05 µM): 0.821; relative viability (IA-LM; first compound 0.1581 µM): 0.623; relative viability (IA-LM; first compound 0.5 µM): 0.614; relative viability (NCI-H1299; first compound 0.005 µM): 1.05; relative viability (NCI-H1299; first compound 0.01581 µM): 1.02; relative viability (NCI-H1299; first compound 0.05 µM): 1.01; relative viability (NCI-H1299; first compound 0.1581 µM): 1.06; relative viability (NCI-H1299; first compound 0.5 µM): 0.958; relative viability (Calu-6; first compound 0.005 µM): 0.904; relative viability (Calu-6; first compound 0.01581 µM): 1.08; relative viability (Calu-6; first compound 0.05 µM): 0.986; relative viability (Calu-6; first compound 0.1581 µM): 0.965; relative viability (Calu-6; first compound 0.5 µM): 0.95; relative viability (HCC-15; first compound 0.005 µM): 0.98; relative viability (HCC-15; first compound 0.01581 µM): 1.04; relative viability (HCC-15; first compound 0.05 µM): 1.08; relative viability (HCC-15; first compound 0.1581 µM): 1.04; relative viability (HCC-15; first compound 0.5 µM): 1.03; relative viability (EBC-1; first compound 0.005 µM): 0.5; relative viability (EBC-1; first compound 0.01581 µM): 0.561; relative viability (EBC-1; first compound 0.05 µM): 0.624; relative viability (EBC-1; first compound 0.1581 µM): 0.511; relative viability (EBC-1; first compound 0.5 µM): 0.477; relative viability (NCI-H1703; first compound 0.005 µM): 0.247; relative viability (NCI-H1703; first compound 0.01581 µM): 0.186; relative viability (NCI-H1703; first compound 0.05 µM): 0.154; relative viability (NCI-H1703; first compound 0.1581 µM): 0.167; relative viability (NCI-H1703; first compound 0.5 µM): 0.164; relative viability (HCC-44; first compound 0.005 µM): 0.895; relative viability (HCC-44; first compound 0.01581 µM): 0.809; relative viability (HCC-44; first compound 0.05 µM): 0.92; relative viability (HCC-44; first compound 0.1581 µM): 0.864; relative viability (HCC-44; first compound 0.5 µM): 0.833; relative viability (EKVX; first compound 0.005 µM): 0.95; relative viability (EKVX; first compound 0.01581 µM): 0.924; relative viability (EKVX; first compound 0.05 µM): 1.11; relative viability (EKVX; first compound 0.1581 µM): 0.987; relative viability (EKVX; first compound 0.5 µM): 1.02; relative viability (NCI-H1755; first compound 0.005 µM): 0.911; relative viability (NCI-H1755; first compound 0.01581 µM): 0.935; relative viability (NCI-H1755; first compound 0.05 µM): 1.01; relative viability (NCI-H1755; first compound 0.1581 µM): 0.577; relative viability (NCI-H1755; first compound 0.5 µM): 0.86; relative viability (UMC-11; first compound 0.005 µM): 0.579; relative viability (UMC-11; first compound 0.01581 µM): 0.723; relative viability (UMC-11; first compound 0.05 µM): 0.911; relative viability (UMC-11; first compound 0.5 µM): 0.668; relative viability (LCLC-103H; first compound 0.005 µM): 0.964; relative viability (LCLC-103H; first compound 0.01581 µM): 1.01; relative viability (LCLC-103H; first compound 0.05 µM): 1.21; relative viability (LCLC-103H; first compound 0.1581 µM): 1.04; relative viability (LCLC-103H; first compound 0.5 µM): 0.967
